Experimental findings from publication PMC5304190, “Inhibitory effects of cholinesterase inhibitor donepezil on the Kv1.5 potassium channel” (Scientific Reports, 2017) are described below.

The target in the experiment is T1, Kv1.5 (Rattus norvegicus, UniProt P19024).
T1 construct: gene Kcna5; Rat Kv1.5 in pEYFP-N1 vector, expressed in HEK293 cells
Nature of the experiment: whole-cell patch clamp of Kv1.[…] expressed in HEK293 cells. The format is cell-based. (The patch-clamp technique gives a direct electrical read-out from membranes.)

T1 sequence (P19024 whole entry): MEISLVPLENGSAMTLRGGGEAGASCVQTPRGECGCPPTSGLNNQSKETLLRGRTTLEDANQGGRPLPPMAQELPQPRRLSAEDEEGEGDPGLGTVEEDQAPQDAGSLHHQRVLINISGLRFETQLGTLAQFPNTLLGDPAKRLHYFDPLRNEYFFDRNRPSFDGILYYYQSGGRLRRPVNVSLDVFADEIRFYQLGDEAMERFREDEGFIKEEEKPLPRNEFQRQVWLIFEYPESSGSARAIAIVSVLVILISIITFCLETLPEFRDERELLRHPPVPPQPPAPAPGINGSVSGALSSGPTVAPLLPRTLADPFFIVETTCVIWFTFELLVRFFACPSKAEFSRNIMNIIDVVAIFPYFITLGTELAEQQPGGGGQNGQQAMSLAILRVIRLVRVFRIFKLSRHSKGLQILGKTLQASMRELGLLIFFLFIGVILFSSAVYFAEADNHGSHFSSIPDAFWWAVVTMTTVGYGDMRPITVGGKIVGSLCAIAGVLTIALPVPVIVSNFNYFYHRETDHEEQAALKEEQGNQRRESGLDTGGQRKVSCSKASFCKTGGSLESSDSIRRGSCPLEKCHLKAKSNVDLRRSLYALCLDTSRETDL

A word on the IC50: it is the midpoint of a concentration-inhibition curve. Lower therefore signals greater potency. `COc1cc2c(cc1OC)C(=O)C(CC1CCN(Cc3ccccc3)CC1)C2` (stereo not shown) [donepezil] displayed a concentration for half-maximal inhibition (IC50) of 72.5 ± 0.5 µM.
